Measured values reported in PubChem BioAssay (NCI).
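Where inhibition never reached the appropriate level, the endpoint shown equals the highest concentration tested. Otherwise, values were interpolated linearly from a five-concentration, 48-hour dose response in 96-well plates. TGI: concentration producing complete growth inhibition.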

Tests used:
Test in all cases: growth of human tumour cells (NCI), 48 h
786-0 renal = system: 786-0 renal
A498 renal = system: A498 renal
A549 NSCLC = system: A549 NSCLC
ACHN renal = system: ACHN renal
BT-549 breast = system: BT-549 breast
CAKI-1 renal = system: CAKI-1 renal
CCRF-CEM leukemia = system: CCRF-CEM leukemia
COLO 205 colon = system: COLO 205 colon
DU-145 prostate = system: DU-145 prostate
EKVX NSCLC = system: EKVX NSCLC
HCC-2998 colon = system: HCC-2998 colon
HCT-116 colon = system: HCT-116 colon
HCT-15 colon = system: HCT-15 colon
HL-60(TB) leukemia = system: HL-60(TB) leukemia
HOP-62 NSCLC = system: HOP-62 NSCLC
HT29 colon = system: HT29 colon
IGROV1 ovarian = system: IGROV1 ovarian
K-562 leukemia = system: K-562 leukemia
KM12 colon = system: KM12 colon
LOX IMVI melanoma = system: LOX IMVI melanoma
M14 melanoma = system: M14 melanoma
MALME-3M melanoma = system: MALME-3M melanoma
MCF7 breast = system: MCF7 breast
MDA-MB-231 breast = system: MDA-MB-231 breast
MDA-MB-435 = system: MDA-MB-435
MDA-N = system: MDA-N
MOLT-4 leukemia = system: MOLT-4 leukemia
NCI-H226 lung = system: NCI-H226 lung
NCI-H460 lung = system: NCI-H460 lung
NCI-H522 lung = system: NCI-H522 lung
NCI/ADR-RES ovarian = system: NCI/ADR-RES ovarian
OVCAR-3 ovarian = system: OVCAR-3 ovarian
OVCAR-4 ovarian = system: OVCAR-4 ovarian
OVCAR-5 ovarian = system: OVCAR-5 ovarian
OVCAR-8 ovarian = system: OVCAR-8 ovarian
PC-3 prostate = system: PC-3 prostate
RPMI-8226 leukemia = system: RPMI-8226 leukemia
RXF 393 renal = system: RXF 393 renal
SF-268 CNS = system: SF-268 CNS
SF-295 CNS = system: SF-295 CNS
SF-539 CNS = system: SF-539 CNS
SK-MEL-2 melanoma = system: SK-MEL-2 melanoma
SK-MEL-28 melanoma = system: SK-MEL-28 melanoma
SK-MEL-5 melanoma = system: SK-MEL-5 melanoma
SK-OV-3 ovarian = system: SK-OV-3 ovarian
SN12C renal = system: SN12C renal
SNB-19 CNS = system: SNB-19 CNS
SNB-75 CNS = system: SNB-75 CNS
SR leukemia = system: SR leukemia
SW-620 colon = system: SW-620 colon
T-47D breast = system: T-47D breast
TK-10 renal = system: TK-10 renal
U251 CNS = system: U251 CNS
UACC-62 melanoma = system: UACC-62 melanoma
UO-31 renal = system: UO-31 renal
HOP-92 NSCLC = system: HOP-92 NSCLC
HS 578T breast = system: HS 578T breast
NCI-H23 lung = system: NCI-H23 lung
UACC-257 melanoma = system: UACC-257 melanoma

CC1(C)[C@@H]2C[C@H]1c1cnc(-c3ccccn3)cc1C2CCCCC[C@@H]1c2cc(-c3ccccn3)ncc2[C@@H]2C[C@H]1C2(C)C (stereo partly drawn)
TGI (786-0 renal): 11.5 µM
TGI (A498 renal): 8.92 µM
TGI (A549 NSCLC): > 36.7 µM
TGI (ACHN renal): > 100 µM
TGI (BT-549 breast): > 100 µM
TGI (CAKI-1 renal): > 30.3 µM
TGI (CCRF-CEM leukemia): 6.28 µM
TGI (COLO 205 colon): > 32.8 µM
TGI (DU-145 prostate): > 100 µM
TGI (EKVX NSCLC): > 100 µM
TGI (HCC-2998 colon): > 100 µM
TGI (HCT-116 colon): 31.3 µM
TGI (HCT-15 colon): > 100 µM
TGI (HL-60(TB) leukemia): 5.76 µM
TGI (HOP-62 NSCLC): > 69.2 µM
TGI (HT29 colon): > 33.3 µM
TGI (IGROV1 ovarian): 46.1 µM
TGI (K-562 leukemia): > 100 µM
TGI (KM12 colon): > 100 µM
TGI (LOX IMVI melanoma): 19.3 µM
TGI (M14 melanoma): > 22.1 µM
TGI (MALME-3M melanoma): > 100 µM
TGI (MCF7 breast): > 100 µM
TGI (MDA-MB-231 breast): 89 µM
TGI (MDA-MB-435): > 100 µM
TGI (MDA-N): 97.1 µM
TGI (MOLT-4 leukemia): > 100 µM
TGI (NCI-H226 lung): 7.53 µM
TGI (NCI-H460 lung): 24.9 µM
TGI (NCI-H522 lung): > 100 µM
TGI (NCI/ADR-RES ovarian): > 100 µM
TGI (OVCAR-3 ovarian): > 100 µM
TGI (OVCAR-4 ovarian): > 100 µM
TGI (OVCAR-5 ovarian): > 100 µM
TGI (OVCAR-8 ovarian): > 100 µM
TGI (PC-3 prostate): > 100 µM
TGI (RPMI-8226 leukemia): 19.6 µM
TGI (RXF 393 renal): 45.5 µM
TGI (SF-268 CNS): > 100 µM
TGI (SF-295 CNS): 7.33 µM
TGI (SF-539 CNS): 0.456 µM
TGI (SK-MEL-2 melanoma): > 88.6 µM
TGI (SK-MEL-28 melanoma): > 100 µM
TGI (SK-MEL-5 melanoma): > 38.5 µM
TGI (SK-OV-3 ovarian): > 100 µM
TGI (SN12C renal): > 44.9 µM
TGI (SNB-19 CNS): > 100 µM
TGI (SNB-75 CNS): > 22.6 µM
TGI (SR leukemia): > 100 µM
TGI (SW-620 colon): > 100 µM
TGI (T-47D breast): > 100 µM
TGI (TK-10 renal): > 100 µM
TGI (U251 CNS): > 100 µM
TGI (UACC-62 melanoma): > 34 µM
TGI (UO-31 renal): > 22.2 µM

CN1CCc2[nH]nc(-c3n[nH]c4c3CN(C)CC4)c2C1
TGI (786-0 renal): > 100 µM
TGI (A498 renal): > 100 µM
TGI (A549 NSCLC): > 100 µM
TGI (ACHN renal): > 100 µM
TGI (BT-549 breast): > 100 µM
TGI (CAKI-1 renal): > 100 µM
TGI (CCRF-CEM leukemia): > 100 µM
TGI (COLO 205 colon): > 100 µM
TGI (DU-145 prostate): > 100 µM
TGI (EKVX NSCLC): > 100 µM
TGI (HCC-2998 colon): > 100 µM
TGI (HCT-116 colon): > 100 µM
TGI (HCT-15 colon): > 100 µM
TGI (HOP-62 NSCLC): > 100 µM
TGI (HOP-92 NSCLC): > 100 µM
TGI (HS 578T breast): > 100 µM
TGI (HT29 colon): > 100 µM
TGI (IGROV1 ovarian): > 100 µM
TGI (K-562 leukemia): > 100 µM
TGI (KM12 colon): > 100 µM
TGI (LOX IMVI melanoma): > 100 µM
TGI (M14 melanoma): > 100 µM
TGI (MALME-3M melanoma): > 100 µM
TGI (MCF7 breast): > 100 µM
TGI (MDA-MB-231 breast): > 100 µM
TGI (MDA-MB-435): > 100 µM
TGI (MDA-N): > 100 µM
TGI (MOLT-4 leukemia): > 100 µM
TGI (NCI-H226 lung): > 100 µM
TGI (NCI-H23 lung): > 100 µM
TGI (NCI-H460 lung): > 100 µM
TGI (NCI-H522 lung): > 100 µM
TGI (NCI/ADR-RES ovarian): > 100 µM
TGI (OVCAR-3 ovarian): > 100 µM
TGI (OVCAR-4 ovarian): > 100 µM
TGI (OVCAR-5 ovarian): > 100 µM
TGI (OVCAR-8 ovarian): > 100 µM
TGI (PC-3 prostate): > 100 µM
TGI (RPMI-8226 leukemia): > 100 µM
TGI (RXF 393 renal): > 100 µM
TGI (SF-268 CNS): > 100 µM
TGI (SF-295 CNS): > 100 µM
TGI (SF-539 CNS): > 100 µM
TGI (SK-MEL-2 melanoma): > 100 µM
TGI (SK-MEL-28 melanoma): > 100 µM
TGI (SK-MEL-5 melanoma): > 100 µM
TGI (SK-OV-3 ovarian): > 100 µM
TGI (SN12C renal): > 100 µM
TGI (SNB-19 CNS): > 100 µM
TGI (SR leukemia): > 100 µM
TGI (SW-620 colon): > 100 µM
TGI (T-47D breast): > 100 µM
TGI (TK-10 renal): > 100 µM
TGI (U251 CNS): > 100 µM
TGI (UACC-257 melanoma): > 100 µM
TGI (UACC-62 melanoma): > 100 µM
TGI (UO-31 renal): > 100 µM

CC(Cl)CC(=O)OCC1CCCN2CCCCC12 (stereo not drawn)
TGI (786-0 renal): > 100 µM
TGI (A498 renal): > 100 µM
TGI (A549 NSCLC): > 100 µM
TGI (ACHN renal): > 100 µM
TGI (BT-549 breast): > 100 µM
TGI (CAKI-1 renal): > 100 µM
TGI (CCRF-CEM leukemia): > 100 µM
TGI (COLO 205 colon): > 100 µM
TGI (DU-145 prostate): > 100 µM
TGI (EKVX NSCLC): > 100 µM
TGI (HCC-2998 colon): > 100 µM
TGI (HCT-116 colon): > 100 µM
TGI (HCT-15 colon): > 100 µM
TGI (HL-60(TB) leukemia): > 100 µM
TGI (HOP-62 NSCLC): > 100 µM
TGI (HOP-92 NSCLC): > 100 µM
TGI (HS 578T breast): > 100 µM
TGI (HT29 colon): > 100 µM
TGI (K-562 leukemia): > 100 µM
TGI (KM12 colon): > 100 µM
TGI (LOX IMVI melanoma): > 100 µM
TGI (M14 melanoma): > 100 µM
TGI (MALME-3M melanoma): > 100 µM
TGI (MCF7 breast): > 100 µM
TGI (MDA-MB-231 breast): > 100 µM
TGI (MDA-MB-435): > 100 µM
TGI (MDA-N): > 100 µM
TGI (MOLT-4 leukemia): > 100 µM
TGI (NCI-H226 lung): > 100 µM
TGI (NCI-H23 lung): > 100 µM
TGI (NCI-H460 lung): > 100 µM
TGI (NCI/ADR-RES ovarian): > 100 µM
TGI (OVCAR-3 ovarian): > 100 µM
TGI (OVCAR-4 ovarian): > 100 µM
TGI (OVCAR-5 ovarian): > 100 µM
TGI (OVCAR-8 ovarian): > 100 µM
TGI (PC-3 prostate): > 100 µM
TGI (RPMI-8226 leukemia): > 100 µM
TGI (RXF 393 renal): > 100 µM
TGI (SF-268 CNS): > 100 µM
TGI (SF-295 CNS): > 100 µM
TGI (SF-539 CNS): > 100 µM
TGI (SK-MEL-2 melanoma): > 100 µM
TGI (SK-MEL-28 melanoma): > 100 µM
TGI (SK-MEL-5 melanoma): > 100 µM
TGI (SK-OV-3 ovarian): > 100 µM
TGI (SN12C renal): > 100 µM
TGI (SNB-19 CNS): > 100 µM
TGI (SNB-75 CNS): > 100 µM
TGI (SW-620 colon): > 100 µM
TGI (T-47D breast): > 100 µM
TGI (TK-10 renal): > 100 µM
TGI (U251 CNS): > 100 µM
TGI (UACC-257 melanoma): > 100 µM
TGI (UACC-62 melanoma): > 100 µM
TGI (UO-31 renal): > 100 µM
